In US5530138A, “Compounds and use thereof” (priority 1993, dated 1996):

Molecular target: T1, binding of 3H-pirenzepine to brain homogenate of rat (Rattus norvegicus, UniProt P08482)
T1 construct: from tissue; host or cells: brain of male SD rats, cerebellum removed; supernatant of 1000×g, re-homogenized
T1 sequence (P08482 1-460): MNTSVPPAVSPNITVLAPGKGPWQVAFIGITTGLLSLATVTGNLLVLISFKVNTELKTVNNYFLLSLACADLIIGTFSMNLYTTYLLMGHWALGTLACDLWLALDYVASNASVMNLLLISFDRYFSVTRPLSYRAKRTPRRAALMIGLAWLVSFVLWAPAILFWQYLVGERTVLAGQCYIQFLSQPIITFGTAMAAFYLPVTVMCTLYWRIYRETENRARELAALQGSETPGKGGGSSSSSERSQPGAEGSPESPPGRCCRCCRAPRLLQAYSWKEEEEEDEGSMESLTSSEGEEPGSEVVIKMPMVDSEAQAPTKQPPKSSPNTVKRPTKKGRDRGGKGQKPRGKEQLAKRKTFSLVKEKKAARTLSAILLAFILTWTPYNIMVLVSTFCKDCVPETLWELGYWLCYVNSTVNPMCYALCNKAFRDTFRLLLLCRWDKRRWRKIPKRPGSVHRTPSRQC
Assay: Inhibition against binding of 3H-pirenzepine to brain homogenate of rat
Details: 2.0 nM 3H-pirenzepine; rat brain homogenate without cerebellum; 550 mM phosphate buffer pH 7.4; 60 minutes at room temperature; read-out: 50% inhibition (IC50) against binding of 3H-pirenzepine to brain homogenate
Protocol: (Inhibition against binding of 3H-pirenzepine to brain homogenate of rat)
A brain homogenate of rat was prepared in accordance with the method described by Yamanura and Synder ["Proc. Natr. Acad. Sci. USA", Vol. 71, pages 1725-1729 (1974)]. Namely, SD male rats were killed by decapitation to exentrate each brain. From the brains, each cerebellum was removed and 0.32 M aqueous sucrose solution in 10-folds by volume was added under ice-cooling condition to homogenize the same by a Potter-Elvehjem type glass homogenizer. The resulting homogenate was centrifuged for 10 minutes (1000×g) to obtain a supernatant by removing a precipitate, which supernatant was further homogenized by a homogenizer of "Polytron" to obtain a fraction to be used as a brain homogenate.
Tests were carried out according to the method described by Flynn and Mash ["J. Pharm. Exp. Ther.", Vol. 250, pages 573-581 (1989). Namely, to the brain homogenate (0.035 ml, protein content: 0.6 mg), 550 mM phosphate buffer (pH 7.4, 1 ml) containing 2.0 nM ^3 H-pirenzepine and a Test or Control compound (1 ml, if the test or control compound is solid form, it is dissolved by the 550 mM phosphate buffer) were added to cause a reaction for 60 minutes at room temperature. Then, an ice-cooled buffer (3.0 ml) same with the above was added to the reaction mixture. Thereafter, the mixture was filtrated by a Whattman GF/B filter which was previously dipped in 0.1% polyethyleneimine solution for 60 minutes. The filter was washed twice by the buffer solution (each 3.0 ml) and an emulsion scintillatot for measuring luminescence by a scintillation counter. A 50% inhibition (IC50)of the test or control compound against binding of 3H-pirenzepine to brain homogenate was calculated.
In the case of `C=C1CC2(CCN(C)CC2)OC1C` (stereo not drawn) [2,8-Dimethyl-3-methylene-1-oxa-8-azabicyclo-[4.5]decane, reference compound], the IC50 is reported as 23600 nM.
With `CN(CC12CCCN1CCC2)c1ccc(Cl)c2ccccc12` [Example 1, 1-[N-(1-Azabicyclo[3.3.0]octan-5-yl)methyl-N-methylamino]-4-chloronaphthalene] the IC50 was 10 nM.
Compound `COc1ccc(N(C)CC23CCCN2CCC3)c2ccccc12` [Example 3, 1-[N-(1-Azabicyclo[3.3.0]octan-5-yl)methyl-N-methylamino]-4-methoxynaphthalene] has an IC50 of 90 nM.
For `CN(CC12CCCN1CCC2)c1cccc2ccccc12` [Example 6, 1-[N-(1-Azabicyclo[3.3.0]octan-5-yl)methyl-N-methylamino]-naphthalene], the IC50 was 30 nM.
Work on `CN(CC12CCCN1CCC2)c1ccc(F)c2ccccc12` [Example 8, 1-[N-(1-Azabicyclo[3.3.0]octan-5-yl)methyl-N-methylamino]-4-fluoronaphthalene] yielded an IC50 of 20 nM.
Work on `CCN(CC12CCCN1CCC2)c1ccc([N+](=O)[O-])c2ccccc12` [Example 12, 1-[N-(1-azabicyclo[3.3.0]octan-5-yl)methyl-N-ethylamino]-4-nitronaphthalene] yielded an IC50 of 200 nM.
Work on `O=CN(CC12CCCN1CCC2)c1ccccc1` [Example 13, N-(1-azabicyclo[3.3.0]octan-5-yl)methyl-N-formylaniline] yielded an IC50 of 300 nM.
For `CN(CC12CCCN1CCC2)c1ccccc1[N+](=O)[O-]` [Example 17, N-(1-azabicyclo[3.3.0]octan-5-yl)methyl-N-methyl-2-nitroaniline], the IC50 was 200 nM.
`CN(CC12CCCN1CCC2)c1ccccc1-c1ccccc1` [Example 20, N-(1-Azabicyclo[3.3.0]octan-5-yl)methyl-N-methyl-2-phenylaniline] gave an IC50 of 100 nM.
`O=[N+]([O-])c1ccccc1NCCC12CCCN1CCC2` [Example 23, N-[2-(1-Azabicyclo[3.3.0]octan-5-yl)ethyl]-2-nitroaniline] showed an IC50 of 100 nM.
Work on `CN(CCC12CCCN1CCC2)c1ccccc1[N+](=O)[O-]` [Example 25, N-[2-(1-Azabicyclo[3.3.0]octan-5-yl)ethyl]-N-methyl-2-nitroaniline] yielded an IC50 of 200 nM.
`N#Cc1ccccc1NCCC12CCCN1CCC2` [Example 27, 2-[2-(1-Azabicyclo[3.3.0]octan-5-yl)ethylamino]benzonitrile] showed an IC50 of 320 nM.
`N#Cc1ccc(NCCC23CCCN2CCC3)cc1` [Example 28, 4-[2-(1-Azabicyclo[3.3.0]octan-5-yl)ethylamino]-benzonitrile] gave an IC50 of 4570 nM.
`CN(CCC12CCCN1CCC2)c1ccccc1C#N` [Example 29, 2-{[2-(1-Azabicyclo[3.3.0]octan-5-yl)ethyl]methylamino}-benzonitrile] showed an IC50 of 240 nM.
Compound `Clc1ccccc1NCCC12CCCN1CCC2` [Example 30, N-[2-(1-Azabicyclo[3.3.0]octan-5-yl)ethyl]-2-chloroaniline] has an IC50 of 430 nM.
`Fc1ccccc1NCCC12CCCN1CCC2` [Example 31, N-[2-(1-Azabicyclo[3.3.0]octan-5-yl)ethyl]-2-fluoroaniline] showed an IC50 of 1590 nM.
For `O=[N+]([O-])c1cc(F)ccc1NCCC12CCCN1CCC2` [Example 32, N-[2-(1-Azabicyclo[3.3.0]octan-5-yl)ethyl]-4-fluoro-2-nitroaniline], the IC50 was 690 nM.
`N#Cc1ccccc1NCC12CCCN1CCC2` [Example 34, 2-[(1-Azabicyclo[3.3.0]octan-5-yl)methylamino]benzonitrile] gave an IC50 of 550 nM.
Work on `O=[N+]([O-])c1ccccc1NCCC12CCCN1CCC2` [Example 36, N-[2-(1-Azabicyclo[3.3.0]octan-5-yl)ethyl]-2-nitroaniline(fumarate)] yielded an IC50 of 90 nM.

Same assay, conditions: read-out: 50% inhibition (IC50) against binding of 3H-pirenzepine to brain homogenate; 2.0 nM 3H-pirenzepine; rat brain homogenate without cerebellum; 550 mM phosphate buffer pH 7.4; 60 minutes at room temperature
`NC(=O)c1ccccc1NCCC12CCCN1CCC2` [Example 33, 2-{[2-(1-Azabicyclo[3.3.0]octan-5-yl)ethyl]amino}benzamide] gave an IC50 of 1110 nM.

Tested on: acetylchotine esterass
Assay: not given
Details: background; cited from earlier work
In the case of `Nc1c2c(nc3ccccc13)CCCC2` [THA, 1,2,3,4tetrahydro-9-aminoacridine], the “inhibition to acetylcholine esterase” value is given as “its action cannot be said as powerful”.
